≈ marks a conversion by molar mass, not a printed value.
Experiments:
Assay in all cases: In vitro antibacterial evaluation: minimum inhibitory concentration (MIC), broth dilution method
Type in all cases: cell-based
[1] = test system: Enterococcus sp.
Outline: (§1)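 NCCLS M7-A2 broth dilution with Mueller-Hinton II, testing 64-0.06 μg/mL antibiotic against 5×10^5 CFU/mL inocula. Test strains include recent methicillin-, penicillin- or vancomycin-resistant clinical isolates. MIC is the lowest concentration preventing growth.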

[2] = test system: Staphylococcus sp.; conditions: for MIC Staphylococcus aureus (ATCC 29213) / MIC Staphylococcus aureus (GC 1131) / MIC Staphylococcus aureus (GC 3051) / MIC Staphylococcus aureus (GC 3053) / MIC Staphylococcus aureus (GC 4541) / MIC Staphylococcus aureus (GC 4542) / MIC Staphylococcus aureus (GC 4544) / MIC Staphylococcus aureus (GC 4545): broth dilution, 18 hours at 35° C.
Outline: as §1

[3] = test system: Streptococcus sp.
Outline: as §1

[4] = test system: Escherichia coli
Outline: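 Inoculum: 5×10^5 CFU/mL. Range: 64-0.06 μg/mL. Medium: Muller-Hinton II […]; NCCLS M7-A2 broth dilution. Endpoint: lowest concentration inhibiting growth. Strains include methicillin-, penicillin- and/or vancomycin-resistant clinical isolates.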

[5] = broth dilution, inoculum 5×10^5 CFU/mL, 18 hours at 35° C.

SMILES: CC(C)=CCCC(C)=CCOc1ccc(C2OCC3OC(OC4C(CO)OC(Oc5ccc(CC6NC(=O)C(C(C)c7ccccc7)NC(=O)CNC(=O)C(CO)NC(=O)C(C(O)C7CNC(=N)N7C7OC(CO)C(O)C(O)C7O)NC(=O)C(C(O)C7CNC(=N)N7)NC6=O)cc5)C(O)C4O)C(O)C(O)C3O2)cc1 (stereo not drawn) [Example 183, Cyclo[glycyl-β-methylphenylalanyl-O-[4-O-[4,6-O-[4-[(3,7-dimethylocta-2,6-dien-1-yl)oxy]-benzylidene]hexopyranosyl]hexopyranosyl]tyrosyl-3-(2-iminoimidazolidin-4-yl)seryl-3-(3-hexopyranosyl-2-iminoimidazolidin-4-yl)serylseryl]]
- MIC Enterococcus avium (GC 4558) [1, 5]: 2 µg/mL (≈ 1.3 µM)
- MIC Enterococcus faecalis (ATCC 29212) [1, 5]: 8 µg/mL (≈ 5.21 µM)
- MIC Enterococcus faecalis (GC 2242) [1, 5]: 8 µg/mL (≈ 5.21 µM)
- MIC Enterococcus faecalis (GC 2691) [1, 5]: 2 µg/mL (≈ 1.3 µM)
- MIC Enterococcus faecalis (GC 3059) [1, 5]: 4 µg/mL (≈ 2.6 µM)
- MIC Enterococcus faecalis (GC 4552) [1, 5]: 8 µg/mL (≈ 5.21 µM)
- MIC Enterococcus faecalis (GC 4553) [1, 5]: 4 µg/mL (≈ 2.6 µM)
- MIC Enterococcus faecalis (GC 4554) [1, 5]: 4 µg/mL (≈ 2.6 µM)
- MIC Enterococcus faecalis (GC 6189) [1, 5]: 2 µg/mL (≈ 1.3 µM)
- MIC Enterococcus faecium (GC 2243) [1, 5]: 2 µg/mL (≈ 1.3 µM)
- MIC Enterococcus faecium (GC 4556) [1, 5]: 8 µg/mL (≈ 5.21 µM)
- MIC Enterococcus faecium (GC 4557) [1, 5]: 4 µg/mL (≈ 2.6 µM)
- MIC Enterococcus faecalis (ATCC 29212) ([1]; strain ATCC 29212): 8 µg/mL (≈ 5.21 µM)
- MIC Enterococcus faecalis (GC 2242) ([1]; strain GC 2242): 8 µg/mL (≈ 5.21 µM)
- MIC Enterococcus faecium (GC 2243) ([1]; strain GC 2243): 2 µg/mL (≈ 1.3 µM)
- MIC Enterococcus faecalis (GC 2691) ([1]; strain GC 2691): 2 µg/mL (≈ 1.3 µM)
- MIC Enterococcus faecalis (GC 3059) ([1]; strain GC 3059): 4 µg/mL (≈ 2.6 µM)
- MIC Enterococcus faecalis (GC 4552) ([1]; strain GC 4552): 8 µg/mL (≈ 5.21 µM)
- MIC Enterococcus faecalis (GC 4553) ([1]; strain GC 4553): 4 µg/mL (≈ 2.6 µM)
- MIC Enterococcus faecalis (GC 4554) ([1]; strain GC 4554): 4 µg/mL (≈ 2.6 µM)
- MIC Enterococcus faecium (GC 4556) ([1]; strain GC 4556): 8 µg/mL (≈ 5.21 µM)
- MIC Enterococcus faecium (GC 4557) ([1]; strain GC 4557): 4 µg/mL (≈ 2.6 µM)
- MIC Enterococcus avium (GC 4558) ([1]; strain GC 4558): 2 µg/mL (≈ 1.3 µM)
- MIC Enterococcus faecalis (GC 6189) ([1]; strain GC 6189): 2 µg/mL (≈ 1.3 µM)
- MIC Staphylococcus aureus (ATCC 29213) ([2]; 5×10^5 CFU/mL): 4 µg/mL (≈ 2.6 µM)
- MIC Staphylococcus aureus (GC 1131) ([2]; 5×10^5 CFU/mL): 8 µg/mL (≈ 5.21 µM)
- MIC Staphylococcus aureus (GC 3051) ([2]; 5×10^5 CFU/mL): 2 µg/mL (≈ 1.3 µM)
- MIC Staphylococcus aureus (GC 3053) ([2]; 5×10^5 CFU/mL): 2 µg/mL (≈ 1.3 µM)
- MIC Staphylococcus aureus (GC 4541) ([2]; 5×10^5 CFU/mL): 8 µg/mL (≈ 5.21 µM)
- MIC Staphylococcus aureus (GC 4542) ([2]; 5×10^5 CFU/mL): 4 µg/mL (≈ 2.6 µM)
- MIC Staphylococcus aureus (GC 4544) ([2]; 5×10^5 CFU/mL): 4 µg/mL (≈ 2.6 µM)
- MIC Staphylococcus aureus (GC 4545) ([2]; 5×10^5 CFU/mL): 4 µg/mL (≈ 2.6 µM)
- MIC Staphylococcus aureus (ATCC 29213) ([2]; strain ATCC 29213): 4 µg/mL (≈ 2.6 µM)
- MIC Staphylococcus aureus (GC 1131) ([2]; strain GC 1131): 8 µg/mL (≈ 5.21 µM)
- MIC Staphylococcus aureus (GC 3051) ([2]; strain GC 3051): 2 µg/mL (≈ 1.3 µM)
- MIC Staphylococcus aureus (GC 3053) ([2]; strain GC 3053): 2 µg/mL (≈ 1.3 µM)
- MIC Staphylococcus aureus (GC 4541) ([2]; strain GC 4541): 8 µg/mL (≈ 5.21 µM)
- MIC Staphylococcus aureus (GC 4542) ([2]; strain GC 4542): 4 µg/mL (≈ 2.6 µM)
- MIC Staphylococcus aureus-SMITH (GC 4543) ([2]; strain GC 4543): 4 µg/mL (≈ 2.6 µM)
- MIC Staphylococcus aureus (GC 4544) ([2]; strain GC 4544): 4 µg/mL (≈ 2.6 µM)
- MIC Staphylococcus aureus (GC 4545) ([2]; strain GC 4545): 4 µg/mL (≈ 2.6 µM)
- MIC Staphylococcus haemolyticus (GC 4546) ([2]; strain GC 4546): 8 µg/mL (≈ 5.21 µM)
- MIC Coagulase Negative Staphylococcus (GC 4547) ([2]; strain GC 4547): 4 µg/mL (≈ 2.6 µM)
- MIC Coagulase Negative Staphylococcus (GC 4548) ([2]; strain GC 4548): 2 µg/mL (≈ 1.3 µM)
- MIC Coagulase Negative Staphylococcus (GC 4549) ([2]; strain GC 4549): 4 µg/mL (≈ 2.6 µM)
- MIC Coagulase Negative Staphylococcus (GC 4551) ([2]; strain GC 4551): 4 µg/mL (≈ 2.6 µM)
- MIC Coagulase Negative Staphylococcus (GC 6257) ([2]; strain GC 6257): 2 µg/mL (≈ 1.3 µM)
- MIC Streptococcus agalactiae (GC 4564) [3, 5]: <0.06 µg/mL
- MIC Streptococcus pneumoniae (ATCC 6301) [3, 5]: <0.06 µg/mL
- MIC Streptococcus pneumoniae (GC 1894) [3, 5]: <0.06 µg/mL
- MIC Streptococcus pneumoniae (GC 4565) [3, 5]: <0.06 µg/mL
- MIC Streptococcus pyogenes (GC 4563) [3, 5]: <0.06 µg/mL
- MIC Streptococcus pneumoniae (ATCC 6301) ([3]; strain ATCC 6301): <0.06 µg/mL
- MIC Streptococcus pneumoniae (GC 1894) ([3]; strain GC 1894): <0.06 µg/mL
- MIC Streptococcus pyogenes (GC 4563) ([3]; strain GC 4563): <0.06 µg/mL
- MIC Streptococcus agalactiae (GC 4564) ([3]; strain GC 4564): <0.06 µg/mL
- MIC Streptococcus pneumoniae (GC 4565) ([3]; strain GC 4565): <0.06 µg/mL
- MIC Escherichia coli (ATCC 25922) ([4]; strain ATCC 25922): >64 µg/mL
- MIC Escherichia coli (GC 4559) ([4]; strain GC 4559): >64 µg/mL
- MIC Escherichi coli (GC 4560) ([4]; strain GC 4560): 4 µg/mL (≈ 2.6 µM)

Reference: patent publication US8247211B2, “Glycopeptide antibiotics” (American Cyanamid Company, priority 2001, dated 2012)
